Source: PubChem BioAssay (NCI)
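These data come from cells grown in 96-well plates and exposed to compound for 48 hours at five concentrations. TGI: total growth inhibition.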

Legend:
Assay in all cases: NCI tumour cell line growth inhibition, 48 h
M19-MEL melanoma = test system: M19-MEL melanoma
DMS 114 small cell lung = test system: DMS 114 small cell lung
HOP-18 NSCLC = test system: HOP-18 NSCLC
SNB-78 CNS = test system: SNB-78 CNS
RXF-631 renal = test system: RXF-631 renal
SN12K1 renal = test system: SN12K1 renal
P388/ADR leukemia = test system: P388/ADR leukemia
P388 leukemia = test system: P388 leukemia

## CCOC(=O)C1=C(C)N2CCCOC2(C)C(C(=O)OC)C1c1cccc([N+](=O)[O-])c1 (stereo not drawn)
M19-MEL melanoma
  TGI: > 100 µM
DMS 114 small cell lung
  TGI: > 100 µM

## COc1cc2c(cc1OC)C(C1(O)CCCCC1)NCC2 (stereo not drawn)
M19-MEL melanoma
  TGI: > 100 µM

## C=C(/C=C/C=C(/CCC=C(C)C)COC(C)=O)[C@@H]1CC[C@]2([C@H](CCCO)/C(=C(/C)C=O)CC[C@]2(C)O)[C@@H]1O
M19-MEL melanoma
  TGI: 33.3 µM
DMS 114 small cell lung
  TGI: 28.8 µM
HOP-18 NSCLC
  TGI: 23.7 µM

## NC(Cc1ccc2oc3cc(=O)c4ccccc4c-3nc2c1)C(=O)O (stereo not drawn)
DMS 114 small cell lung
  TGI: 41.1 µM
SNB-78 CNS
  TGI: > 100 µM
HOP-18 NSCLC
  TGI: 77.7 µM

## Nc1nc(Cl)cc(NCCCCO)n1
RXF-631 renal
  TGI: > 100 µM
M19-MEL melanoma
  TGI: > 100 µM
DMS 114 small cell lung
  TGI: > 100 µM
SNB-78 CNS
  TGI: > 100 µM

## C#CCCCCC#CC1CCCC1C1=CC(=O)c2ccccc21 (stereo not drawn)
DMS 114 small cell lung
  TGI: 6.97 µM
HOP-18 NSCLC
  TGI: 25 µM

## CCCNCC(O)/C=C/[Si](C)(C)C (stereo not drawn) (tested in a mixture with another compound)
RXF-631 renal
  TGI: > 100 µM
M19-MEL melanoma
  TGI: > 100 µM
DMS 114 small cell lung
  TGI: > 100 µM
SNB-78 CNS
  TGI: > 100 µM
HOP-18 NSCLC
  TGI: > 100 µM

## CCCCCCc1ccc(O)cc1O
M19-MEL melanoma
  TGI: 98 µM
SNB-78 CNS
  TGI: > 100 µM
SN12K1 renal
  TGI: > 100 µM
P388/ADR leukemia
  TGI: > 100 µM
HOP-18 NSCLC
  TGI: > 92.5 µM
P388 leukemia
  TGI: > 100 µM

## O=S(=O)(O)c1cc(O)c2c(O)c(N=Nc3ccc(/C=C/c4ccc(N=Nc5c(S(=O)(=O)O)cc6cc(S(=O)(=O)O)cc(O)c6c5O)cc4S(=O)(=O)O)c(S(=O)(=O)O)c3)c(S(=O)(=O)O)cc2c1
M19-MEL melanoma
  TGI: > 100 µM
DMS 114 small cell lung
  TGI: > 100 µM
HOP-18 NSCLC
  TGI: > 100 µM

## CN(C)CCNc1ccc2nnn3c4ccc(Cl)cc4c(=O)c1c23
RXF-631 renal
  TGI: 16.4 µM
M19-MEL melanoma
  TGI: 15.1 µM
SNB-78 CNS
  TGI: 34.9 µM

## COc1cc2c(cc1O)CCN[C@@]21CS[C@H]2c3c(OC(C)=O)c(C)c4c(c3C(COC1=O)N1C2C2c3c(cc(C)c(OC)c3O)CC([C@@H]1O)N2C)OCO4 (stereo partly drawn)
M19-MEL melanoma
  TGI: < 1e-06 µM
